According to ChEMBL document CHEMBL3612016, “1,4-Disubstituted aromatic piperazines with high 5-HT2A/D2 selectivity: Quantitative structure-selectivity investigations, docking, synthesis and biological evaluation” (Bioorg Med Chem, 2015):

What was measured:
[1] = molecular target: T1, D(2) dopamine receptor (Homo sapiens, UniProt P14416)
Description: Activity at dopamine D2S receptor (unknown origin) expressed in HEK293 cell membranes co-expressing Galpha protein subunit Galphai2 by [35S]GTPgammaS binding assay

[2] = molecular target: 5-hydroxytryptamine receptor 2A (Homo sapiens, UniProt P28223); test: biochemical; type: cell-based, HEK293
Description: Displacement of [3H]ketanserin from human 5-HT2A receptor expressed in HEK293 cell membranes by radioligand competition binding assay

[3] = molecular target: T1, D(2) dopamine receptor; type: functional, cell-based, HEK293
[4] = molecular target: T1, D(2) dopamine receptor; test: biochemical; type: cell-based, CHO
Description: Displacement of [3H]spiperone from human dopamine D2S receptor expressed in CHO cell membranes by radioligand competition binding assay

[5] = molecular target: T2, D(4) dopamine receptor (Homo sapiens, UniProt P21917); test: biochemical; type: cell-based, CHO
T2 sequence (P21917 whole entry): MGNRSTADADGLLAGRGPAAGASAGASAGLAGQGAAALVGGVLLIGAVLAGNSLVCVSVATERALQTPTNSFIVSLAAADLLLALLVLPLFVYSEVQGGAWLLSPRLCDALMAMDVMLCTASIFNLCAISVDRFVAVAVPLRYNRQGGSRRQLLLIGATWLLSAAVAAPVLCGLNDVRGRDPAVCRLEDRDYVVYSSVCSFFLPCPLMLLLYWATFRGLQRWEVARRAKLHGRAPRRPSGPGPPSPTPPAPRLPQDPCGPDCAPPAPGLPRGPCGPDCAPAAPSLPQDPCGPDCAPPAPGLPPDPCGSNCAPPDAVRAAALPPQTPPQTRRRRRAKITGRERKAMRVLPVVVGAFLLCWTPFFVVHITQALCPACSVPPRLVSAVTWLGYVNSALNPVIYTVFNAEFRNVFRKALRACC
Description: Displacement of [3H]spiperone from human dopamine D4.4 receptor expressed in CHO cell membranes by radioligand competition binding assay

[6] = molecular target: D(3) dopamine receptor (Homo sapiens, UniProt P35462); test: biochemical; type: cell-based, CHO
Description: Displacement of [3H]spiperone from human dopamine D3 receptor expressed in CHO cell membranes by radioligand competition binding assay

[7] = molecular target: T1, D(2) dopamine receptor; type: cell-based; conditions: hek293
Description: Activity at pro-link-tagged D2S-ARMS2PK2 (unknown origin) expressed in HEK293 cells by beta-arrestin-2 recruitment assay

[8] = molecular target: D(1A) dopamine receptor (Homo sapiens, UniProt P21728); test: biochemical; type: cell-based, CHO
Description: Displacement of [3H]SCH23990 from human dopamine D1 receptor expressed in CHO cell membranes by radioligand competition binding assay

[9] = molecular target: T1, D(2) dopamine receptor; test: biochemical; type: cell-based, CHO; remark: listed apart in the source
Description: Displacement of [3H]spiperone from human dopamine D2L receptor expressed in CHO cell membranes by radioligand competition binding assay

Chain of D(3) dopamine receptor (P35462 whole entry): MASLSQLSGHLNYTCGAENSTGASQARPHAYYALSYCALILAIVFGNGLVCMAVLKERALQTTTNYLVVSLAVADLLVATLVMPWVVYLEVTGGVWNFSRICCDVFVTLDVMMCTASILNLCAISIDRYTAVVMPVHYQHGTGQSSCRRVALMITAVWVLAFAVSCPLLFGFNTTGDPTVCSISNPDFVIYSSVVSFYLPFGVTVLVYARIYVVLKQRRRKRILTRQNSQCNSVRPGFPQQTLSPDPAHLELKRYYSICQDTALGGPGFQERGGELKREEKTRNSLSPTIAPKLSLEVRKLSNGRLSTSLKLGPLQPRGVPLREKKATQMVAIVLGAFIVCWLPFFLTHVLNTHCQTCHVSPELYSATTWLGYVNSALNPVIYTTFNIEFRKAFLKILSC
Chain of 5-hydroxytryptamine receptor 2A (P28223 whole entry): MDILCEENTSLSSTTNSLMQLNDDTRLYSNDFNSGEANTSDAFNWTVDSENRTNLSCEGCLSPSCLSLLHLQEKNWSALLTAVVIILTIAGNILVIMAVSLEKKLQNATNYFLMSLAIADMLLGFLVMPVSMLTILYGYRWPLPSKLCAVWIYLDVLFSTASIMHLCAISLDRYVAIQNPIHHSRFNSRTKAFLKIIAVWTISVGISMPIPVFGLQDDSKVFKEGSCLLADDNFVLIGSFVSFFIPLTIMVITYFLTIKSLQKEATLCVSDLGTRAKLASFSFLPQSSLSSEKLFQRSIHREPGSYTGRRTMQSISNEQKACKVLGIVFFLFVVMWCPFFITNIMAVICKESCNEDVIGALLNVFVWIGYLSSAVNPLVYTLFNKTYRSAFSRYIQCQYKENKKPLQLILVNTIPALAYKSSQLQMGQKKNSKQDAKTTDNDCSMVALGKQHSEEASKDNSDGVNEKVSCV
Chain of D(1A) dopamine receptor (P21728 whole entry): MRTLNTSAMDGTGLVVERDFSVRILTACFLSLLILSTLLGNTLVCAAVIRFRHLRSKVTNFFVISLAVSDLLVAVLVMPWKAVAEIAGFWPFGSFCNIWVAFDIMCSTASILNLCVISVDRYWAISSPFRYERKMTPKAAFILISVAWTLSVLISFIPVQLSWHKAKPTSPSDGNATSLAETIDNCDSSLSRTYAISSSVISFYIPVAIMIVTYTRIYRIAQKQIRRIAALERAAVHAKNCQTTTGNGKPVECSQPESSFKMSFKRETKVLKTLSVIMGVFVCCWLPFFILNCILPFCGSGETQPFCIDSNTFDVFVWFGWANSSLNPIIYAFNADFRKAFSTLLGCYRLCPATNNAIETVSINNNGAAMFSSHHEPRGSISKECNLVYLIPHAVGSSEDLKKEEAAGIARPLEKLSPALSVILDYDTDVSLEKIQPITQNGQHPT
T1 sequence (P14416 whole entry): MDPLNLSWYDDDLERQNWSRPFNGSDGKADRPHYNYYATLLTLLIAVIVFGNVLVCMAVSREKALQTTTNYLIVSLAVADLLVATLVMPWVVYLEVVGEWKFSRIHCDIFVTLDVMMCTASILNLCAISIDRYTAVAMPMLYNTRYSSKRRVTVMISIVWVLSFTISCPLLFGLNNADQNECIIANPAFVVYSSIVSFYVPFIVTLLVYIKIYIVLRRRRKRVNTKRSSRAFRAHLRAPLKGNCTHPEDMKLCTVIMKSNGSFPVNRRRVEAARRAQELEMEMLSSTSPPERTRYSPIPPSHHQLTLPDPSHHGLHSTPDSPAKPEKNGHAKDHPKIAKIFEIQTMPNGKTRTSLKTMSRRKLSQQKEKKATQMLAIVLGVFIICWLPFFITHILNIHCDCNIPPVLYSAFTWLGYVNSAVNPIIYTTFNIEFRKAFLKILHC

| SMILES | EC50 [1] [nM] | Ki [2] [nM] | EC50 [3] [nM] | Ki [4] [nM] | Ki [5] [nM] | Ki [6] [nM] | EC50 [7] | Ki [8] [nM] | Ki [9] [nM] |
| --- | --- | --- | --- | --- | --- | --- | --- | --- | --- |
| O=Cc1cnn2ccc(-n3cc(CCCCN4CCN(c5cccc(Cl)c5Cl)CC4)nn3)cc12 | 1860 | 15 | 692 | 51 | 1400 | 4.4 | Not Active | 1500 | 110 |
| Clc1cccc(N2CCN(CCc3cn(-c4ccn5nccc5c4)nn3)CC2)c1Cl | 1100 | 7.1 | 479 | 10 | 180 | 2.2 | Not Active | 120 | 22 |
| Clc1cccc(N2CCN(CCCCc3cn(-c4ccn5nccc5c4)nn3)CC2)c1Cl | – | 0.64 | 741 | 7.3 | 76 | 0.31 | Not Active | 110 | 23 |
| COc1ccccc1N1CCN(CCCNC(=O)c2cc3ccccn3n2)CC1 | – | 560 | – | – | – | – | – | – | – |
| O=Cc1cnn2ccc(-n3cc(CCN4CCN(c5cccc(Cl)c5Cl)CC4)nn3)cc12 | 3550 | 50 | 200 | 8 | 3000 | 32 | Not Active | 160 | 11 |
| O=C(NCCCCN1CCN(c2cccc(Cl)c2Cl)CC1)c1cc2ccccc2[nH]1 | – | 31 | – | – | – | – | – | – | – |
| O=Cc1cnn2ccc(-n3cc(CCCN4CCN(c5cccc(Cl)c5Cl)CC4)nn3)cc12 | 955 | 6.9 | 191 | 3.8 | 130 | 12 | Not Active | 210 | 6.7 |
| COc1ccccc1N1CCN(CCCc2cn(-c3ccn4nccc4c3)nn2)CC1 | – | 84 | 977 | 81 | 37 | 77 | Not Active | 1700 | 140 |
| Clc1cccc(N2CCN(CCCc3cn(-c4ccn5nccc5c4)nn3)CC2)c1Cl | – | 5.3 | 1120 | 54 | 42 | 8.5 | Not Active | 110 | 130 |
| COc1ccccc1N1CCN(CCc2cn(-c3ccn4ncc(C=O)c4c3)nn2)CC1 | 4370 | 89 | 550 | 9.4 | 98 | 8.5 | Not Active | 620 | 18 |
| COc1ccccc1N1CCN(CCNC(=O)c2cnn3ccccc23)CC1 | – | 580 | – | – | – | – | – | – | – |

Other lines, results leading:

| EC50 [1] [nM] | Ki [2] [nM] | EC50 [3] [nM] | Ki [4] [nM] | Ki [5] [nM] | Ki [6] [nM] | EC50 [7] | Ki [8] [nM] | Ki [9] [nM] | SMILES |
| --- | --- | --- | --- | --- | --- | --- | --- | --- | --- |
| – | 44 | – | – | – | – | – | – | 3 | CCCc1c(C(=O)NCCCCN2CCN(c3ccccc3OC)CC2)nnn1Cc1ccccc1Br |
| – | 29 | – | – | – | – | – | – | 7.1 | CCCc1c(C(=O)NCCCCN2CCN(c3ccccc3OC)CC2)nnn1Cc1ccc(OC)cc1 |
| – | 140 | – | – | – | – | – | – | 2.5 | COc1ccccc1N1CCN(CCCCCNC(=O)c2nnn(Cc3ccccc3)c2C)CC1 |
| – | 620 | – | – | – | – | – | – | 35 | COc1ccccc1N1CCN(CCCCNC(=O)c2nnn(Cc3ccccc3)c2C)CC1 |
| – | 150 | – | – | – | – | – | – | 17 | COc1ccccc1N1CCN(CCCCNC(=O)c2nnn(Cc3ccccc3Br)c2C)CC1 |
| – | 140 | – | – | – | – | – | – | – | COc1ccc(Cn2nnc(C(=O)NCCCCN3CCN(c4ccccc4OC)CC3)c2C)cc1 |
| – | 130 | – | – | – | – | – | – | – | COc1ccccc1N1CCN(CCCCCNC(=O)c2cnn3ccccc23)CC1 |
| – | 62 | – | – | – | – | – | – | 0.91 | CCCc1c(C(=O)NCCCCCN2CCN(c3ccccc3OC)CC2)nnn1Cc1ccccc1Br |
| – | 2.5 | – | – | – | – | – | – | 6.4 | CCCc1c(C(=O)NCCCCN2CCN(c3cccc(Cl)c3Cl)CC2)nnn1Cc1ccccc1 |
| – | 93 | – | – | – | – | – | – | 2.7 | COc1ccc(Cn2nnc(C(=O)NCCCCCN3CCN(c4ccccc4OC)CC3)c2C)cc1 |
| – | 41 | – | – | – | – | – | – | 0.58 | COc1ccccc1N1CCN(CCCCCNC(=O)c2nnn(Cc3ccccc3Br)c2C)CC1 |
| – | 110 | – | – | – | – | – | – | 6.4 | CCCc1c(C(=O)NCCCCN2CCN(c3ccccc3OC)CC2)nnn1Cc1ccccc1 |
| – | 3.2 | – | – | – | – | – | – | 1.5 | COc1ccc(Cn2nnc(C(=O)NCCCCCN3CCN(c4cccc(Cl)c4Cl)CC3)c2C)cc1 |
| – | 220 | – | – | – | – | – | – | – | COc1ccccc1N1CCN(CCCCCNC(=O)c2cc3ccccn3n2)CC1 |
| – | 7.4 | – | – | – | – | – | – | 14 | Cc1c(C(=O)NCCCCN2CCN(c3cccc(Cl)c3Cl)CC2)nnn1Cc1ccccc1 |
